# Measurements as given in patent publication US8440464B2, “Method for evaluation or selection of adiponectin secretion regulator” (Kao Corporation, priority 2008, dated 2013).
# Tested on: plasma adiponectin level
# Experiment: Plasma adiponectin level in REM sleep deprivation rat model (platform method), rat adiponectin ELISA
# Assay type: in vivo
# Details: SD rats, 30-hour REM sleep deprivation, oral 150 mg/kg thrice every 12 hours (300 mg/kg/day), vs. control group receiving distilled water, P<0.05 (Fisher's PLSD test)
# Description: SD rats (male, 10 to 11 weeks old) were divided into groups, each containing rats with similar body weights. A cylindrical platform (diameter: 6.0 cm, height: 2.5 cm) on which a rat can take a rest was placed in a cage, and water was added to the cage so that the water level was adjusted to 1 cm below the top of the platform. Each rat was reared for one to four days in the cage (one rat/cage). Rats of a rest group were reared in cages each containing a common floorcloth (N=4 for each group). In a chlorogenic acid administration experiment, rats were reared in cages for 30-hour REM sleep deprivation. Rats of a chlorogenic acid (5-CQA, product of Sigma) administration group orally received chlorogenic acid thrice every 12 hours by means of a probe (dose: 150 mg/kg (300 mg/kg/day)). Rats of a control group received distilled water. Rats of a rest group were reared in cages each containing a common floorcloth, and received distilled water (N=6 for each group). […] The plasma adiponectin level was determined by means of a rat adiponectin ELISA kit (product of ADIPOGEN®). Specifically, plasma was 1,000-fold diluted with a dilution buffer contained in the kit, and then plasma adiponectin level was determined according to the kit protocol.
smiles,measurement,value
O=C(/C=C/c1ccc(O)c(O)c1)O[C@@H]1C[C@](O)(C(=O)O)C[C@@H](O)[C@H]1O [chlorogenic acid],Effect on reduction in plasma adiponectin level caused by REM sleep deprivation,significantly suppressed a reduction in plasma adiponectin level
